Test results from the NIST ThermoML archive (doi:10.1021/je900311v).

Experiments:
[1] = excess molar enthalpy (molar enthalpy of mixing); xn = mol fraction of the nth substance listed; conditions: 298.15 K, 101 kPa, Liquid, Calvet calorimetry
[2] = 298.15 K; 101.33 kPa; Liquid

CCCCCCC(C)=O [2-octanone] + CCCCCCCCCCCCCC
[1]
Conditions	excess molar enthalpy [kcal/mol]
x1 = 0.0383	0.0506
x1 = 0.0737	0.0908
x1 = 0.1066	0.123
x1 = 0.1373	0.15
x1 = 0.1659	0.173
x1 = 0.1927	0.191
x1 = 0.2226	0.209
x1 = 0.2504	0.223
x1 = 0.2763	0.235
x1 = 0.3005	0.244
x1 = 0.3231	0.252
x1 = 0.3443	0.258
x1 = 0.3678	0.263
x1 = 0.3898	0.267
x1 = 0.4102	0.27
x1 = 0.4151	0.273
x1 = 0.4243	0.274
x1 = 0.4339	0.275
x1 = 0.444	0.275
x1 = 0.4546	0.276
x1 = 0.4657	0.276
x1 = 0.4756	0.276
x1 = 0.486	0.276
x1 = 0.4968	0.275
x1 = 0.5082	0.275
x1 = 0.52	0.274
x1 = 0.5304	0.272
x1 = 0.5412	0.271
x1 = 0.5525	0.27
x1 = 0.5643	0.268
x1 = 0.5765	0.265
x1 = 0.5893	0.263
x1 = 0.6004	0.26
x1 = 0.612	0.257
x1 = 0.624	0.254
x1 = 0.6364	0.25
x1 = 0.6494	0.246
x1 = 0.6629	0.241
x1 = 0.6753	0.237
x1 = 0.6882	0.232
x1 = 0.7016	0.226
x1 = 0.7155	0.22
x1 = 0.73	0.213
x1 = 0.7451	0.205
x1 = 0.7709	0.191
x1 = 0.7844	0.183
x1 = 0.7985	0.175
x1 = 0.8131	0.165
x1 = 0.8282	0.155
x1 = 0.8413	0.146
x1 = 0.8549	0.136
x1 = 0.8689	0.125
x1 = 0.8834	0.113
x1 = 0.8983	0.101
x1 = 0.9138	0.0873
x1 = 0.9271	0.0752
x1 = 0.9409	0.0622
x1 = 0.955	0.0482
x1 = 0.9695	0.0332
x1 = 0.9845	0.017

CCCCCCCCCCCC [dodecane]
Conditions	mass density [kg/m3]
[2]	745.28
